Measured values from US11242374B2, “Minimally-invasive and activity-dependent control of excitable cells” (Brown University, priority 2015, dated 2022).

Key:
[1] = tested on: TRN neurons expressing eGLuc-VChR1; assay: in vitro slice recordings of TRN neurons transduced with AAV2/9-hSyn-eGLuc-VChR1, CTZ superfusion; type: cell-based, mice
Protocol: (§1) Mice were injected with AAV2/9-hSyn-eGLuc-VChR1 into the thalamus of mice, and in vitro slice experiments were performed 7-12 days later. […] VPm expression was negligible except from TRN axons. Expressing TRN neurons were electrophysiologically normal, and strongly responsive to LED light pulses (FIGS. 5B and 5C). The short latencies and other properties of these responses indicate robust VChR1 expression. Superfusion of the luciferin CTZ (100 μM) caused ca. 1-3 mV reversible depolarization (FIGS. 5D and 5E; N=3 cells, 2 mice). […] At 20 days post viral injection, a 16-contact laminar electrode was used to record from the TRN and neighboring relay nuclei under light isoflurane anesthesia (0.5%). […] Spike shape also indicated relay neuron and not TRN identity. […] These combined effects are consistent with TRN-driven hyperpolarization of this neuron and a shift to burst mode.

[2] = tested on: TRN and neighboring relay nuclei (eGLuc-VChR1); assay: in vivo laminar electrode recording from TRN and neighboring relay nuclei after IV CTZ; parameters: species or system mice; conditions: ca. 150 μg CTZ IV (tail vein)
Protocol: as §1

[3] = tested on: neocortical neurons expressing eGLuc-VChR1; assay: action potential firing in cultured neocortical neurons expressing eGLuc-VChR1; type: cell-based; conditions: cell expressing fusion protein containing eGLuc-VChR1 (depolarization)
Excerpt: (§2) The neurons were modified to express fusion proteins including a luminescent protein (enhanced Gaussia luciferase (eGLuc)) and either VChR1 or Mac. Successful expression of the full construct in the neocortical neurons was confirmed by observation of the fluorescence of the reporter protein (upper middle panel titled Fluorescence in FIG. 3). Ability of eGLuc to luminesce was unaffected by the inclusion of light-gated ion channel (VChR1 or Mac), as shown in the upper right panel titled Luminescence in FIG. 3).

[4] = tested on: neocortical neurons expressing eGLuc-Mac; assay: action potential firing in cultured neocortical neurons expressing eGLuc-Mac; type: cell-based; conditions: cell expressing fusion protein containing eGLuc-Mac (hyperpolarization)
Excerpt: as §2

[5] = tested on: neocortical neurons transfected with Gaussia luciferase; assay: IVIS imaging of mouse brain expressing Gaussia luciferase after intravenous coelenterazine; type: in vivo; conditions: intravenous injection several weeks after transfection; right hemisphere
Protocol: FIG. 2 is a photograph showing an example in which neocortical neurons in the right hemisphere were transfected with a Gaussia luciferase.
Several weeks later, coelenterazine was administered intravenously to the mouse, and an image of the mouse's head was taken with IVIS® imaging system (FIG. 2).

[6] = tested on: rat cortical neurons expressing LMO3; assay: multi electrode array (MEA) recording and luminescence of cortical neurons expressing LMO3 (sbGLuc-VChR1); type: cell-based
Excerpt: FIGS. 12A-12D show multi electrode arrays used in the in vitro experiments on rat cortical neurons. FIG. 12A is a schematic of the multi electrode array. FIGS. 12B and 12C are images of the electrode array. FIG. 12D is a fluorescent image of MEA culture of rat cortical neurons transduced with AAV-hSyn-LMO3, where LMO3 is a fusion of sbGLuc and VChR1. Neurons are visible in fluorescent green, because of the expression of LMO3, which includes EYFP.
FIG. 13 is a series of graphs showing the luminescence and neuronal activity of rat cortical neurons in response to contacting with coelenterazine (CTZ) or with the vehicle.
Excitable cells (rat cortical neurons) expressing a light-gated ion channel (VChR1) fused to a luminescent protein (Gaussia luciferase) were cultured on multi electrode arrays (MEA), as shown in FIGS. 12A-12D. The results are shown in FIG. 13 Under continuous recording MEA dishes were injected (see arrows) with CTZ or with vehicle. Upon injection a pronounced artifact was observed (see FIG. 13). […] In contrast, vehicle injection causes the artifact, but neuronal spiking pattern is not altered. […] Neurons in the culture express LMO3 (luminopsins 3, a fusion of sbGLuc and VChR1). Upon application of substrate (CTZ), but not of vehicle, the luciferase emits light which activates the channelrhodopsin, resulting in changed spiking activity (see before and after CTZ). […]

`Oc1ccc(Cc2nc3c(Cc4ccccc4)nc(-c4ccc(O)cc4)cn3c2O)cc1` [CTZ, coelenterazine] was tested, and the “onset of stimulus-evoked spike bursts” value ([1]; CTZ-evoked depolarization vs control) was “delaying onset of stimulus-evoked spike bursts”, the reversible depolarization ([1]; superfusion of CTZ 100 μM, N=3 cells, 2 mice) was 1-3 mV and the “burst rate in Cell 2 (events with 100 msec prior inactivity and >95 Hz spike rate)” value [2] was “increase in burst rate”. The “firing rate in other cells (Cell 2, relay neuron)” value [2] was “decreases in firing rate”, the “firing in multi-unit activity and well-isolated single neurons (Cell 1)” value ([2]; putative TRN, 20 days post viral injection, isoflurane 0.5%) was “firing increased” and the “spontaneous action potential firing” value [3] was “increase in spontaneous action potential firing”. For the same compound, the “spontaneous action potential firing” value [4] was “suppression of spontaneous action potential firing”, the “bioluminescence emission through the scalp” value [5] was “emitted brightly” and the “neuronal spiking pattern on MEA” value ([6]; CTZ injected into MEA dishes, vehicle does not alter pattern) was “desynchronized spiking”. The luminescence of neurons ([6]; contacting with CTZ vs vehicle) was “results in luminescence”.
